Compared with `O=C(N[C@H](Cc1ccc(C(F)(F)F)cc1)[C@@H](O)c1ccc(F)cc1)c1cccc2c1OCC2` (racemic), `COc1ccc(COc2ccc(COc3ccc4c(c3)CCC(CN(C)C)C4)cc2)cc1` (centres undefined) is lower in melting point: 121 to 122 °C for the first, 106 to 111 °C for the second.

Compared with `CC(C)=CC(=O)N1CCN(C(Cc2cccc(O)c2)c2ccccc2)CC1` (centres undefined), `Cc1csc2c1c(N1CCN(C(=O)c3cccs3)CC1)c(C#N)c(=O)n2Cc1ccccc1` is higher in melting point: 186 to 187 °C for the first, 223 °C for the second.

First: CCc1ccc(N/C=C/[N+](=O)[O-])c(C(=O)O)c1
Second: Cc1cc(Oc2ccc(C(=O)O)cc2)ccc1[N+](=O)[O-]
The melting point of the first is higher: 190 to 191 °C for the first, 187 to 190 °C for the second.

First: CNC(=O)C(C)C(O)(Cn1cncn1)c1ccc(Cl)cc1Cl (centres undefined)
Second: O=C(c1ccccc1)c1cc(Cl)ccc1OCCCl
The melting point of the first is higher: 242 to 244 °C for the first, 73 to 74.5 °C for the second.

First: CCCCCCCCCCCCCCCCCCOc1cc2ccccc2cc1O
Second: O=C(O)CCCCCCCCn1c(-c2ccccc2)nc(-c2ccccc2)c1-c1ccccc1
The melting point of the first is lower: 60 to 62 °C for the first, 149 to 150 °C for the second.

First: CC(=O)Nc1ccc(SCC(=O)NCC(=O)N(C)c2ccc(Cl)c(COc3cccc4ccc(C)nc34)c2Cl)cc1
Second: CCC(C)(C)c1ccc(OCCCCNC(=O)c2cc(Sc3nnnn3-c3ccccc3)c3ccccc3c2O)c(C(C)(C)CC)c1
The melting point of the first is higher: 179 to 180 °C for the first, 147 to 148 °C for the second.

First: Cc1c(C(=O)Nc2ccc(N3CCN(C4CCOCC4)CC3)c(C#N)c2)cnn1-c1cccc(Cl)c1
Second: CC(=O)N(C)c1c(C(=O)c2cccc(Cl)c2)[nH]c2cc(Cl)ccc12
The melting point of the first is higher: 230 °C for the first, 202 to 203 °C for the second.

Compared with `CC1(C)CCOC1(O)Cn1cncn1` (centres undefined), `CNC(=S)NCCCSc1nnnn1C` is higher in melting point: 93 to 95 °C for the first, 99 to 101 °C for the second.

First: C[C@H](O)[C@H](Cc1ccccc1)C(=O)NN
Second: N#CC(Cl)Cc1ccc(C(=O)O)cc1 (centres undefined)
The melting point of the first is higher: 167 °C for the first, 157 °C for the second.

First: O=C1Nc2cccnc2N(C(=O)NCCN2CCC(CNCC3CCCCC3)C2)c2ccccc21 (centres undefined)
Second: CC(C)CNc1ccccc1CS(=O)c1nc2ncccc2[nH]1 (centres undefined)
The melting point of the first is higher: 166 to 167 °C for the first, 116 °C for the second.

First: Nc1cc(I)ccc1Nc1cccc(-c2cncnc2)c1
Second: OC1CSC(Oc2cncc(-c3cncnc3)c2)C(O)C1O (centres undefined)
The melting point of the first is lower: 166 to 169 °C for the first, 196 °C for the second.

`NCC1Cc2cc(-c3ccccc3F)cc(F)c2O1` (centres undefined) and `O=C(c1ccccc1)c1cccc(Cc2c(O)c3ccc(Cl)cc3[nH]c2=O)c1` cannot be ordered by melting point: > 250 °C for the first, 294 to 295 °C for the second.

Compared with `CC(C)(C)OC(=O)N1C(=O)CCC1c1ccc(Br)cc1` (centres undefined), `Cc1cccc2c1N(C(=O)OC(C)(C)C)Cc1c(-c3noc(C4CC4)n3)ncn1-2` is higher in melting point: 122 to 124 °C for the first, 189 to 192 °C for the second.

Compared with `CC(=O)NNC1=Nc2sccc2C(c2ccccc2)=NC1`, `COC=C(C(=O)OC)N(C)c1nccc(-c2ccccc2)n1` is lower in melting point: 194 to 196 °C for the first, 123 to 125 °C for the second.

Compared with `CC(C)On1c(C(C)C)nc2c(N)nc3ccccc3c21`, `COCc1c(-c2ccon2)ncc2[nH]c3ccc(OCc4ccccc4)cc3c12` is lower in melting point: 177 to 179 °C for the first, 123 to 126 °C for the second.

First: O=C(c1ccccc1)N1CC2C(C1)C2Nc1ncc2cc(-c3ccccc3Cl)c(=O)n(-c3ccc(F)cc3)c2n1 (centres undefined)
Second: COc1cc(COc2nn(-c3ccccc3)cc2C#N)ccc1OCc1nc(-c2ccco2)oc1C
The melting point of the first is higher: 242 to 244 °C for the first, 167 to 168 °C for the second.

First: N#Cc1cnc2sccc2c1Cl
Second: N#Cc1cnn(-c2c(Cl)cc(Cl)cc2Cl)c1N
The melting point of the first is lower: 100 to 103 °C for the first, 208 to 210 °C for the second.

Compared with `COc1cc2c(c3c1OC(C)(C)C3)C(c1cccc(-c3ccco3)c1)=NC(C)(C)C2`, `O=Cc1cc(C#Cc2ccccc2)c(C=O)cc1C#Cc1ccccc1` is higher in melting point: 126 to 128 °C for the first, 179 to 181 °C for the second.

First: CCOC(=O)c1sc(C)nc1SC(=O)N(C)C
Second: CC(=O)Nc1nc(C)c(S(=O)(=O)NC(C)(CO)CO)s1
The melting point of the first is lower: 84.5 to 85.5 °C for the first, 201 °C for the second.

For `CS(=O)(=O)OCC1(COc2ccc(Br)cc2)COC1`, the melting point was 89 to 91 °C.
